Here are results for 46 compounds from US12502386B2, “Nitrogen-containing heterocyclic compound and use thereof” (SHANGHAI SHIJIANG BIOTECHNOLOGY CO., LTD, priority 2022, dated 2025).

Each structure is given as a SMILES string.

Type in all cases: cell-based, human
Test [1] relates to Con-NCI-H82 cell. The test can be described thus: CellTiter-Glo cell viability, Con-NCI-H82 cell (empty-vector control). To be noted: Homo sapiens, NCI-H82, NCI-H82 transfected with empty virus vector (control), intracellular ATP, read-out: inhibitory effect on Con-NCI-H82 (IC50). (In ATP-based viability assays light output follows the ATP content of the culture.)
In test [2] the test system is ov-NNMT NCI-H82 cell. The test can be described thus: CellTiter-Glo cell viability, ov-NNMT NCI-H82 cell (NNMT overexpressed). To be noted: Homo sapiens, NCI-H82, NCI-H82 overexpressing NNMT protein, intracellular ATP, read-out: inhibitory effect on OV-NNMT NCI-H82 (IC50).
Test [3] relates to sh-DNMT1 NCI-H82 cell. The test can be described thus: CellTiter-Glo cell viability, sh-DNMT1 NCI-H82 cell (DNMT1 knocked down). To be noted: Homo sapiens, NCI-H82, NCI-H82 with DNMT1 knocked down by shRNA, intracellular ATP, read-out: inhibitory effect on sh-DNMT1 NCI-H82 (IC50).

By IC50 is commonly meant the concentration needed to halve the response being measured. As to `C1=C2c3cc4c(cc3CCN2C(C2CCCC2)c2cc3c(cc21)OCO3)OCO4` (stereo not drawn) [AB35467], the IC50 in test [1] came to 5640 nM; in test [2], 13300 nM; in test [3], 15400 nM.

In the case of `COc1ccc2c(c1OC)C(C)N1CCc3cc4c(cc3C1=C2CCCCc1ccccc1)OCO4` (stereo not drawn) [AB35468], the IC50 in test [1] was 820 nM; in test [2], 3120 nM; in test [3] it was 4320 nM.

On to `COc1ccc2c(c1OC)C(C(Cl)(Cl)Cl)N1CCc3cc4c(cc3C1=C2CCCCc1ccccc1)OCO4` (stereo not drawn) [AB35469], for which the IC50 in test [1] came out at 790 nM; in test [2] it was 3520 nM; in test [3], 5320 nM.

`COc1ccc2c(c1OCCCCCCCl)C(C(Cl)(Cl)Cl)N1CCc3cc4c(cc3C1=C2)OCO4` (stereo not drawn) [AB35475]: the IC50 in test [1] was determined as 1290 nM; in test [2], 4120 nM; in test [3], 4020 nM.

Take `COc1ccc2c(c1OCCCF)C(C(Cl)(Cl)Cl)N1CCc3cc4c(cc3C1=C2)OCO4` (stereo not drawn) [AB35478]: the figures for the IC50 in test [1], in test [2] and in test [3] were 1230 nM, 4320 nM and 4020 nM, respectively.

On to `COc1ccc2c(c1OC)C(C(Cl)(Cl)Cl)N1CCc3cc4c(cc3C1=C2CCCc1ccccc1)OCCO4` (stereo not drawn) [AB35484], for which the IC50 was 770 nM in test [1], 3560 nM in test [2] and 3320 nM in test [3].

Consider `COc1ccc2c(c1OCCCF)C(C)N1CCc3cc4c(cc3C1=C2)OCO4` (stereo not drawn) [AB35485], for which the IC50 in test [1] stood at 4550 nM; in test [2], 12300 nM; in test [3] it was 16800 nM.

As to `COc1ccc2c(c1NCCc1ccccc1)C(C(Cl)(Cl)Cl)N1CCc3cc4c(cc3C1=C2)OCO4` (stereo not drawn) [AB35486], the figures for the IC50 in test [1], in test [2] and in test [3] were 250 nM, 1340 nM and 2560 nM, respectively.

Turning to `CCCCCCOc1c(OC)ccc2c1C(C(Cl)(Cl)Cl)N1CCc3cc4c(cc3C1=C2)OCO4` (stereo not drawn) [AB35487], the IC50 in test [1] was found to be 490 nM; in test [2], 1980 nM; in test [3] it was 3230 nM.

Consider `CCC1=C2c3cc4c(cc3CCN2C(C(Cl)(Cl)Cl)c2c1ccc(OC)c2OC)OCO4` (stereo not drawn) [AB35488], for which the figures for the IC50 in test [1], in test [2] and in test [3] were 1980 nM, 7560 nM and 9320 nM, respectively.

For the compound `CCCCCCC1=C2c3cc4c(cc3CCN2C(C2CCCC2)c2c1ccc(OC)c2OC)OCO4` (stereo not drawn) [AB35489], the IC50 came to 820 nM in test [1], 3780 nM in test [2] and 3560 nM in test [3].

In the case of `COc1ccc2c(c1OCCCCl)C(C1CCC1)N1CCc3cc4c(cc3C1=C2)OCO4` (stereo not drawn) [AB35490], the figures for the IC50 in test [1], in test [2] and in test [3] were 2680 nM, 7520 nM and 8460 nM, respectively.

`COc1ccc2c(c1OCCCCl)C(C1CCCCC1)N1CCc3cc4c(cc3C1=C2)OCO4` (stereo not drawn) [AB35491]: the figures for the IC50 in test [1], in test [2] and in test [3] were 2220 nM, 6860 nM and 6540 nM, respectively.

`CCCC1=C2c3cc4c(cc3CCN2C(C(Cl)(Cl)Cl)c2c1ccc(OC)c2OC)OCO4` (stereo not drawn) [AB35492]: the IC50 in test [1] is 1460 nM; in test [2] it was 4560 nM; in test [3], 4440 nM.

On to `COc1ccc2c(c1OC)C(C)N1CCc3cc4c(cc3C1=C2CCCc1ccccc1)OCCO4` (stereo not drawn) [AB35493], for which the figures for the IC50 in test [1], in test [2] and in test [3] were 680 nM, 1530 nM and 2070 nM, respectively.

As to `CCCCOc1c(OC)ccc2c1C(C(Cl)(Cl)Cl)N1CCc3cc4c(cc3C1=C2)OCO4` (stereo not drawn) [AB35494], the IC50 in test [1] amounted to 430 nM; in test [2] it was 2120 nM; in test [3], 1960 nM.

For `COc1ccc2c(c1OCCCCCl)C(C(Cl)(Cl)Cl)N1CCc3cc4c(cc3C1=C2)OCO4` (stereo not drawn) [AB35496], the IC50 was 2920 nM in test [1], 6320 nM in test [2] and 8240 nM in test [3].

As for `CCCCCCCCC1=C2c3cc4c(cc3CCN2C(C(Cl)(Cl)Cl)c2c1ccc(OC)c2OC)OCO4` (stereo not drawn) [AB35497], the 50% inhibitory concentration (IC50) in test [1] is 1250 nM; in test [2], 3560 nM; in test [3], 5680 nM.

In the case of `COc1ccc2c(c1OC)C(C)N1CCc3cc4c(cc3C1=C2CCc1ccccc1)OCO4` (stereo not drawn) [AB35498], the IC50 in test [1] is 1280 nM; in test [2], 4120 nM; in test [3] it was 4380 nM.

As for `CCOc1c(OC)ccc2c1C(C(Cl)(Cl)Cl)N1CCc3cc4c(cc3C1=C2)OCO4` (stereo not drawn) [AB35499], the values for the IC50 in test [1], in test [2] and in test [3] were 2160 nM, 6960 nM and 6520 nM, respectively.

Take `COc1ccc2c(c1OC)C(C1CCCC1)N1CCc3cc4c(cc3C1=C2CCCCCCCl)OCO4` (stereo not drawn) [AB35500]: the IC50 in test [1] was determined as 1110 nM; in test [2], 2980 nM; in test [3] it was 2880 nM.

Turning to `COc1ccc2c(c1OC)C(C(Cl)(Cl)Cl)N1CCc3cc4c(cc3C1=C2CCCCCCBr)OCO4` (stereo not drawn) [AB35501], the values for the IC50 in test [1], in test [2] and in test [3] were 870 nM, 2120 nM and 2560 nM, respectively.

For `CCCCC1=C2c3cc4c(cc3CCN2C(C(Cl)(Cl)Cl)c2c1ccc(OC)c2OC)OCO4` (stereo not drawn) [AB35502], the IC50 amounted to 2930 nM in test [1], 7180 nM in test [2] and 7020 nM in test [3].

For the compound `CCCCCOc1c(OC)ccc2c1C(C(Cl)(Cl)Cl)N1CCc3cc4c(cc3C1=C2)OCO4` (stereo not drawn) [AB35505], the IC50 in test [1] is 520 nM; in test [2], 2140 nM; in test [3], 3360 nM.

Take `CCCCCCC1=C2c3cc4c(cc3CCN2C(C(Cl)(Cl)Cl)c2c1ccc(OC)c2OC)OCO4` (stereo not drawn) [AB35508]: the IC50 in test [1] turned out to be 740 nM; in test [2], 3120 nM; in test [3] it was 2980 nM.

`COc1ccc2c(c1N1CCC(C(F)(F)F)CC1)C(C(Cl)(Cl)Cl)N1CCc3cc4c(cc3C1=C2)OCO4` (stereo not drawn) [AB35514]: the IC50 in test [1] was 370 nM; in test [2], 1360 nM; in test [3], 1980 nM.

`COc1ccc2c(c1N1CCN(C)CC1)C(C(Cl)(Cl)Cl)N1CCc3cc4c(cc3C1=C2)OCO4` (stereo not drawn) [AB35518]: the IC50 in test [1] came to 3520 nM; in test [2], 10100 nM; in test [3], 13300 nM.

Take `COc1ccc2c(c1N1CCN(C)CC1)C(C1CCCC1)N1CCc3cc4c(cc3C1=C2)OCO4` (stereo not drawn) [AB35519]: the IC50 worked out at 2190 nM in test [1], 5680 nM in test [2] and 4680 nM in test [3].

Turning to `CCC(CC)COc1c(OC)ccc2c1C(C(Cl)(Cl)Cl)N1CCc3cc4c(cc3C1=C2)OCO4` (stereo not drawn) [AB35521], the IC50 in test [1] is 610 nM; in test [2] it was 2320 nM; in test [3], 3140 nM.

With `CCCCCC1=C2c3cc4c(cc3CCN2C(C2CCCC2)c2c1ccc(OC)c2OC)OCO4` (stereo not drawn) [AB35522], the results for the IC50 in test [1], in test [2] and in test [3] were 1360 nM, 3680 nM and 5640 nM, respectively.

For `COc1ccc2c(c1OC)C(C1CCCC1)N1CCc3cc4c(cc3C1=C2CCCCCCBr)OCO4` (stereo not drawn) [AB35523], the IC50 in test [1] was found to be 1020 nM; in test [2], 2990 nM; in test [3] it was 2860 nM.

Consider `COc1ccc2c(c1OC)C(C(Cl)(Cl)Cl)N1CCc3cc4c(cc3C1=C2CCCCCCCl)OCO4` (stereo not drawn) [AB35524], for which the IC50 in test [1] is 1340 nM; in test [2], 4320 nM; in test [3] it was 4020 nM.

With `COc1ccc2c(c1OCc1ccccc1-c1ccccc1)C(C(Cl)(Cl)Cl)N1CCc3cc4c(cc3C1=C2)OCO4` (stereo not drawn) [AB35531], the IC50 in test [1] worked out at 920 nM; in test [2], 3550 nM; in test [3], 3980 nM.

For `COc1ccc2c(c1OCCCCc1ccccc1)C(C(Cl)(Cl)Cl)N1CCc3cc4c(cc3C1=C2)OCO4` (stereo not drawn) [AB35535], the figures for the IC50 in test [1], in test [2] and in test [3] were 220 nM, 1210 nM and 1320 nM, respectively.

As to `COc1ccc2c(c1OCCCBr)CN1CCc3cc4c(cc3C1=C2)OCO4` [AB35544], the IC50 was 280 nM in test [1], 1020 nM in test [2] and 2040 nM in test [3].

`COc1ccc2c(c1N1CCC(C)CC1)CN1CCc3cc4c(cc3C1=C2)OCCO4` [AB35545]: the IC50 in test [1] is 140 nM; in test [2], 1330 nM; in test [3] it was 1560 nM.

Consider `COc1ccc2c(c1N1CCC(Cl)CC1)CN1CCc3cc4c(cc3C1=C2)OCCO4` [AB35550], for which the values for the IC50 in test [1], in test [2] and in test [3] were 2120 nM, 4690 nM and 4580 nM, respectively.

For the compound `CCOc1c(OC)ccc2c1CN1CCc3cc4c(cc3C1=C2)OCO4` [AB35594], the IC50 in test [1] was found to be 1260 nM; in test [2] it was 4120 nM; in test [3] it was 3980 nM.

For `COc1ccc2c(c1OCCF)CN1CCc3cc4c(cc3C1=C2)OCO4` [AB35599], the figures for the IC50 in test [1], in test [2] and in test [3] were 1380 nM, 3430 nM and 6420 nM, respectively.

As to `COc1ccc2c(c1OCCBr)CN1CCc3cc4c(cc3C1=C2)OCO4` [AB36403], the figures for the IC50 in test [1], in test [2] and in test [3] were 380 nM, 1540 nM and 1460 nM, respectively.

Take `[2H]C1c2c(ccc(OC)c2OC)C=C2c3cc4c(cc3CCN21)OCO4` (stereo not drawn) [AB36415]: the IC50 stood at 880 nM in test [1], 2560 nM in test [2] and 3640 nM in test [3].

Consider `CCCC1c2c(ccc3c2OCO3)C=C2c3cc4c(cc3CCN21)OCO4` (stereo not drawn) [AB36416], for which the IC50 in test [1] worked out at 1080 nM; in test [2], 3440 nM; in test [3], 4510 nM.

Turning to `CCC1=C2c3cc4c(cc3CCN2C(C(Cl)(Cl)Cl)c2c1ccc1c2OCO1)OCO4` (stereo not drawn) [AB36426], the 50% inhibitory concentration (IC50) amounted to 18600 nM in test [1], 18100 nM in test [2] and 18800 nM in test [3].

Turning to `CCCC1=C2c3cc4c(cc3CCN2C(C(Cl)(Cl)Cl)c2c1ccc1c2OCO1)OCO4` (stereo not drawn) [AB36427], the IC50 in test [1] turned out to be 3280 nM; in test [2], 7560 nM; in test [3], 6980 nM.

On to `C1=C2c3cc4c(cc3CCN2Cc2cc3c(cc21)OCO3)OCO4` [AB36428], for which the IC50 in test [1] was 450 nM; in test [2], 1440 nM; in test [3], 2290 nM.

Turning to `CCCC1=C2c3cc4c(cc3CCN2C(C2CCCC2)c2c1ccc1c2OCO1)OCO4` (stereo not drawn) [AB36432], the concentration for half-maximal inhibition (IC50) is 1260 nM in test [1], 3680 nM in test [2] and 4460 nM in test [3].
